Results reported in paper PMC8474119, “Discovery and SAR Evolution of Pyrazole Azabicyclo[3.2.1]octane Sulfonamides as a Novel Class of Non-Covalent N-Acylethanolamine-Hydrolyzing Acid Amidase (NAAA) Inhibitors for Oral Administration” (Journal of Medicinal Chemistry, 2021).

Target: T1, h-NAAA (Homo sapiens, UniProt Q02083)
T1 construct: made in house; host or cells: HEK-293 cells stably overexpressing human NAAA; enzyme-enriched (lysosomal) lysate
T1 sequence (Q02083 29-125 limits assumed): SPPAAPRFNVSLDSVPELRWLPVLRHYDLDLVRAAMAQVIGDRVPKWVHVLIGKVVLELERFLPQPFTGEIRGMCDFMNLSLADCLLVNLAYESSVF
T1 sequence (Q02083 126-359 limits assumed): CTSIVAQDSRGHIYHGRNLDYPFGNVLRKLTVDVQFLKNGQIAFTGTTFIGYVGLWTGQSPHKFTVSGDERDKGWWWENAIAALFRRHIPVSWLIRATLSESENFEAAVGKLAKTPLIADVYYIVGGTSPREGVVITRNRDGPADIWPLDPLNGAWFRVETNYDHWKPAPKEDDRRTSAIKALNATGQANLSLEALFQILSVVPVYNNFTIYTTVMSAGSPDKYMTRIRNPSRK
Test: Fluorogenic human-NAAA assay (h-NAAA, fluo.)
Assay type: biochemical
Conditions: for IC50 / pIC50: h-NAAA (fluo.); for IC50: mean ± SD (n ≥ 3), n.a.: not active @50 μM (<10% inhibition); for LipE: LipE = pIC50 – c Log P (h-NAAA); for pIC50: Table S1
Experimental: Human recombinant proteins were obtained from HEK-293 stable overexpressing human NAAA, AC, and FAAH-1 cell lines, respectively. Cells were grown in Dulbecco’s modified Eagle medium (DMEM) containing 10% FBS, 1% glutamine, 1 mM sodium pyruvate, and 500 μg/mL geneticin (G418). To obtain a high-density cell proliferation, h-NAAA-HEK-293 cells were grown in BelloCell-500 bottle, a compact bioreactor. On the contrary, h-AC and h-FAAH-1-HEK-293 cells were grown in 150 mm dishes and scraped off with cold PBS 1× pH 7.4 at 80% confluence. Cell pellets were collected and stored at −80 °C until protein preparation.
HEK-293 cells stably transfected with the human NAAA or human AC coding sequences were used as the enzyme source. Cells were suspended in 20 mM Tris-HCl (pH 7.4) with 0.32 M sucrose, sonicated, and centrifuged at 800g for 30 min at 4 °C. Supernatants were then centrifuged at 12,000g for 30 min at 4 °C. Pellets were resuspended in PBS buffer (pH 7.4) and subjected to three freeze-thaw cycles at −80 °C. The suspension was finally centrifuged at 105,000g for 1 h at 4 °C, supernatants were collected, protein concentration was measured, and samples were aliquoted and stored at −80 °C until use.
The assay was run in 96-well microplates (Black OptiPlate-96 F; PerkinElmer, Massachusetts, USA), in a total reaction volume of 200 μL. h-NAAA protein preparation (4 μg) was preincubated for 30 min with various concentrations of test compounds or vehicle control (DMSO 5%) in 100 mM citrate/phosphate buffer (pH 4.5) containing 3.0 mM DTT, 0.1% NP40, 0.05% BSA, and 150 mM NaCl. The background (no activity) samples were prepared using assay buffer without h-NAAA and DMSO (5%). N-(4-methyl-2-oxo-chromen-7-yl)-hexadecanamide (PAMCA)[60] was used as a substrate (2 μM) and the reaction was carried out for 50 min at 37 °C. Fluorescence was measured with EnVision 2014 Multilabel Reader (PerkinElmer, Massachusetts, USA) using an excitation wavelength of 355 nm and an emission of 460 nm. IC50 values were calculated by non-linear regression analysis of log[concentration]/response curves generated with mean replicate values using a four-parameter Hill equation curve fitting with GraphPad Prism 5 (GraphPad Software Inc., CA, USA).

Row | Structure (SMILES) | IC50 [nM] | LipE | pIC50
1 | Cc1n[nH]c(C)c1S(=O)(=O)N1[C@@H]2CC[C@H]1C[C@H](Oc1ccccc1)C2 [Compound 32, (1R,3s,5S)-8-((3,5-Dimethyl-1H-pyrazol-4-yl)sulfonyl)-3-phenoxy-8-azabicyclo[3.2.1]octane] | 655 ± 45 |  | 
2 | Cc1ccc(O[C@H]2C[C@H]3CC[C@@H](C2)N3S(=O)(=O)c2c(C)n[nH]c2C)cc1 [Compound 33, (1R,3r,5S)-8-((3,5-Dimethyl-1H-pyrazol-4-yl)sulfonyl)-3-(p-tolyloxy)-8-azabicyclo[3.2.1]octane] | 36 ± 4 |  | 
3 | Cc1ccc(O[C@@H]2C[C@H]3CC[C@@H](C2)N3S(=O)(=O)c2c(C)n[nH]c2C)cc1 [Compound 34, (1R,3s,5S)-8-((3,5-Dimethyl-1H-pyrazol-4-yl)sulfonyl)-3-(p-tolyloxy)-8-azabicyclo[3.2.1]octane] | 8710 ± 340 |  | 
4 | Cc1cccc(OC2CC3CCC(C2)N3S(=O)(=O)c2c(C)n[nH]c2C)c1 [Compound 35, (1R,3r,5S)-8-((3,5-Dimethyl-1H-pyrazol-4-yl)sulfonyl)-3-(m-tolyloxy)-8-azabicyclo[3.2.1]octane] | 614 ± 140 |  | 
5 | Cc1ccccc1O[C@H]1C[C@H]2CC[C@@H](C1)N2S(=O)(=O)c1c(C)n[nH]c1C [Compound 36, (1R,3r,5S)-8-((3,5-Dimethyl-1H-pyrazol-4-yl)sulfonyl)-3-(o-tolyloxy)-8-azabicyclo[3.2.1]octane] | 291 ± 10 |  | 
6 | CCc1ccc(O[C@H]2C[C@H]3CC[C@@H](C2)N3S(=O)(=O)c2c(C)n[nH]c2C)cc1 [Compound 37, (1R,3r,5S)-8-((3,5-Dimethyl-1H-pyrazol-4-yl)sulfonyl)-3-(4-ethylphenoxy)-8-azabicyclo[3.2.1]octane] | 51 ± 5 |  | 
7 | Cc1n[nH]c(C)c1S(=O)(=O)N1[C@@H]2CC[C@H]1C[C@@H](Oc1ccc(C(C)C)cc1)C2 [Compound 38, (1R,3r,5S)-8-((3,5-Dimethyl-1H-pyrazol-4-yl)sulfonyl)-3-(4-isopropylphenoxy)-8-azabicyclo[3.2.1]octane] | 744 ± 90 |  | 
8 | CCCCCCc1ccc(O[C@H]2C[C@H]3CC[C@@H](C2)N3S(=O)(=O)c2c(C)n[nH]c2C)cc1 [Compound 41, (1R,3r,5S)-8-((3,5-Dimethyl-1H-pyrazol-4-yl)sulfonyl)-3-(4-hexylphenoxy)-8-azabicyclo[3.2.1]octane] | 19 ± 1 |  | 
9 | Cc1n[nH]c(C)c1S(=O)(=O)N1[C@@H]2CC[C@H]1C[C@@H](Oc1ccc(CCC(C)C)cc1)C2 [Compound 42, (1R,3r,5S)-8-((3,5-Dimethyl-1H-pyrazol-4-yl)sulfonyl)-3-(4-isopentylphenoxy)-8-azabicyclo[3.2.1]octane] | 114 ± 10 |  | 
10 | Cc1n[nH]c(C)c1S(=O)(=O)N1[C@@H]2CC[C@H]1C[C@@H](Oc1ccc(C(F)(F)F)cc1)C2 [Compound 43, (1R,3r,5S)-8-((3,5-Dimethyl-1H-pyrazol-4-yl)sulfonyl)-3-(4-(trifluoromethyl)phenoxy)-8-azabicyclo[3.2.1]octane] | 212 ± 20 |  | 
11 | COc1ccc(O[C@H]2C[C@H]3CC[C@@H](C2)N3S(=O)(=O)c2c(C)n[nH]c2C)cc1 [Compound 44, (1R,3r,5S)-8-((3,5-Dimethyl-1H-pyrazol-4-yl)sulfonyl)-3-(4-methoxyphenoxy)-8-azabicyclo[3.2.1]octane] | 175 ± 15 |  | 
12 | Cc1n[nH]c(C)c1S(=O)(=O)N1[C@@H]2CC[C@H]1C[C@@H](Oc1ccc(C#N)cc1)C2 [Compound 45] | 757 ± 80 |  | 
13 | Cc1n[nH]c(C)c1S(=O)(=O)N1[C@@H]2CC[C@H]1C[C@@H](Oc1ccc(F)cc1)C2 [Compound 46, (1R,3r,5S)-8-((3,5-Dimethyl-1H-pyrazol-4-yl)sulfonyl)-3-(4-fluorophenoxy)-8-azabicyclo[3.2.1]octane] | 143 ± 7 |  | 
14 | CCCOc1ccc(O[C@H]2C[C@H]3CC[C@@H](C2)N3S(=O)(=O)c2c(C)n[nH]c2C)cc1 [Compound 47, (1R,3r,5S)-8-((3,5-Dimethyl-1H-pyrazol-4-yl)sulfonyl)-3-(4-propoxyphenoxy)-8-azabicyclo[3.2.1]octane] | 450 ± 70 | 3.55 | 6.35
15 | CCOCc1ccc(O[C@H]2C[C@H]3CC[C@@H](C2)N3S(=O)(=O)c2c(C)n[nH]c2C)cc1 [Compound 48, (1R,3r,5S)-8-((3,5-Dimethyl-1H-pyrazol-4-yl)sulfonyl)-3-(4-(ethoxymethyl)phenoxy)-8-azabicyclo[3.2.1]octane] | 16 ± 2 | 5.70 | 7.79
